# Laboratory results taken from paper PMC4503722, “Novel Phenotypic Outcomes Identified for a Public Collection of Approved Drugs from a Publicly Accessible Panel of Assays” (PLoS ONE, 2015).
# System: endothelial tube formation in co-cultures of ECFCs and ADSCs treated with VEGF
# Assay: cells
# Assay type: cell-based, human
# Settings: not given
row,SMILES,VEGF_ADSC\ECFC Angio CD31 TubeArea IC50/EC50
1,C[C@@]12C(=O)OC(=O)[C@]1(C)C1CCC2O1 [NCGC00025212-08],1.2254 µM
2,c1ccc2c(c1)Sc1ccccc1N2CC1CN2CCC1CC2 (stereo not drawn) [NCGC00183046-03],9.4389 µM

# System: nuclear β-catenin in C2C12 cells
# Assay: cells
# Assay type: cell-based
# Settings: assay number 5; concentration response
row,SMILES,WntCondMedia_bCatenin C2C12 IC50/EC50
1,C[C@@]12C(=O)OC(=O)[C@]1(C)C1CCC2O1 [NCGC00025212-08],> 20 µM
2,c1ccc2c(c1)Sc1ccccc1N2CC1CN2CCC1CC2 (stereo not drawn) [NCGC00183046-03],> 20 µM

# System: alkaline phosphatase (ALP) activity in C2C12 cells
# Assay: not given
# Assay type: cell-based
# Settings: assay number 6; concentration response
row,SMILES,WntCondMedia_Alk Phos C2C12 IC50/EC50
1,C[C@@]12C(=O)OC(=O)[C@]1(C)C1CCC2O1 [NCGC00025212-08],1.4897 µM
2,c1ccc2c(c1)Sc1ccccc1N2CC1CN2CCC1CC2 (stereo not drawn) [NCGC00183046-03],> 20 µM

# System: NCI-H716 cells
# Assay: cells
# Assay type: cell-based, Human
# Settings: assay number 12
row,SMILES,hNCI-H716 GLP1 Secretion IC50/EC50
1,C[C@@]12C(=O)OC(=O)[C@]1(C)C1CCC2O1 [NCGC00025212-08],6.6758 µM
2,c1ccc2c(c1)Sc1ccccc1N2CC1CN2CCC1CC2 (stereo not drawn) [NCGC00183046-03],> 40 µM

# System: STC-1 cell line
# Assay: not given
# Assay type: cell-based, mouse
# Settings: assay number 13
row,SMILES,mSTC-1 GLP1 Secretion IC50/EC50
1,C[C@@]12C(=O)OC(=O)[C@]1(C)C1CCC2O1 [NCGC00025212-08],13.7125 µM
2,c1ccc2c(c1)Sc1ccccc1N2CC1CN2CCC1CC2 (stereo not drawn) [NCGC00183046-03],> 40 µM

# System: HeLa cells
# Assay: cells
# Assay type: cell-based
# Settings: assay number 14; 2N
row,SMILES,Hela CellCycMod PI 2N IC50/EC50
1,C[C@@]12C(=O)OC(=O)[C@]1(C)C1CCC2O1 [NCGC00025212-08],> 10 µM

# Same assay, conditions: assay number 15; S phase
row,SMILES,Hela CellCycMod PI S Phase IC50/EC50
1,C[C@@]12C(=O)OC(=O)[C@]1(C)C1CCC2O1 [NCGC00025212-08],> 10 µM

# Same assay, conditions: assay number 16; 4N
row,SMILES,Hela CellCycMod PI 4N IC50/EC50
1,C[C@@]12C(=O)OC(=O)[C@]1(C)C1CCC2O1 [NCGC00025212-08],> 10 µM

# Same assay, conditions: assay number 17; MI
row,SMILES,Hela CellCycMod PI MI IC50/EC50
1,C[C@@]12C(=O)OC(=O)[C@]1(C)C1CCC2O1 [NCGC00025212-08],8.4996 µM

# Same assay, conditions: assay number 18; cell number
row,SMILES,Hela CellCycMod PI Cell Number IC50/EC50
1,C[C@@]12C(=O)OC(=O)[C@]1(C)C1CCC2O1 [NCGC00025212-08],1.0094 µM

# System: DLD-1
# Assay: cells
# Assay type: cell-based
# Settings: assay number 23; basal
row,SMILES,Basal_Viability ATP DLD-1 IC50/EC50
1,c1ccc2c(c1)Sc1ccccc1N2CC1CN2CCC1CC2 (stereo not drawn) [NCGC00183046-03],> 20 µM

# System: SW480
# Assay: cells
# Assay type: cell-based
# Settings: assay number 24; basal
row,SMILES,Basal_Viability ATP SW480 IC50/EC50
1,c1ccc2c(c1)Sc1ccccc1N2CC1CN2CCC1CC2 (stereo not drawn) [NCGC00183046-03],5.431 µM

# System: HCT116
# Assay: cells
# Assay type: cell-based
# Settings: assay number 25; basal
row,SMILES,Basal_Viability ATP HCT116 IC50/EC50
1,c1ccc2c(c1)Sc1ccccc1N2CC1CN2CCC1CC2 (stereo not drawn) [NCGC00183046-03],> 20 µM

# System: HCT116 cells treated with a GSK3β inhibitor
# Assay: cells
# Assay type: cell-based
# Settings: assay number 26; GSK3b inhibitor pretreated
row,SMILES,GSK3b inh pretreated_Viability ATP HCT116 IC50/EC50
1,c1ccc2c(c1)Sc1ccccc1N2CC1CN2CCC1CC2 (stereo not drawn) [NCGC00183046-03],> 20 µM

# System: Colo320
# Assay: cells
# Assay type: cell-based
# Settings: assay number 27; basal
row,SMILES,Basal_Viability ATP Colo 320 IC50/EC50
1,c1ccc2c(c1)Sc1ccccc1N2CC1CN2CCC1CC2 (stereo not drawn) [NCGC00183046-03],> 20 µM

# System: HT-29
# Assay: cells
# Assay type: cell-based
# Settings: assay number 28; basal
row,SMILES,Basal_Viability ATP HT-29 IC50/EC50
1,c1ccc2c(c1)Sc1ccccc1N2CC1CN2CCC1CC2 (stereo not drawn) [NCGC00183046-03],> 20 µM

# System: RKO
# Assay: cells
# Assay type: cell-based
# Settings: assay number 29; basal
row,SMILES,Basal_Viability ATP RKO IC50/EC50
1,c1ccc2c(c1)Sc1ccccc1N2CC1CN2CCC1CC2 (stereo not drawn) [NCGC00183046-03],8.4586 µM

# System: SNU-C1
# Assay: cells
# Assay type: cell-based
# Settings: assay number 30; basal
row,SMILES,Basal_Viability ATP SNU-C1 IC50/EC50
1,c1ccc2c(c1)Sc1ccccc1N2CC1CN2CCC1CC2 (stereo not drawn) [NCGC00183046-03],> 20 µM

# Biological target: T1, hp70S6K1 (RPS6KB1) (Homo sapiens, UniProt P23443)
# T1 construct: purchased Cerep (LANCE kinase assay platform, contract assay)
# Assay: Cerep LANCE kinase assay hp70S6K1 (S1 assay 31)
# Assay type: biochemical
# Settings: assay number 31
# T1 sequence (P23443 whole entry): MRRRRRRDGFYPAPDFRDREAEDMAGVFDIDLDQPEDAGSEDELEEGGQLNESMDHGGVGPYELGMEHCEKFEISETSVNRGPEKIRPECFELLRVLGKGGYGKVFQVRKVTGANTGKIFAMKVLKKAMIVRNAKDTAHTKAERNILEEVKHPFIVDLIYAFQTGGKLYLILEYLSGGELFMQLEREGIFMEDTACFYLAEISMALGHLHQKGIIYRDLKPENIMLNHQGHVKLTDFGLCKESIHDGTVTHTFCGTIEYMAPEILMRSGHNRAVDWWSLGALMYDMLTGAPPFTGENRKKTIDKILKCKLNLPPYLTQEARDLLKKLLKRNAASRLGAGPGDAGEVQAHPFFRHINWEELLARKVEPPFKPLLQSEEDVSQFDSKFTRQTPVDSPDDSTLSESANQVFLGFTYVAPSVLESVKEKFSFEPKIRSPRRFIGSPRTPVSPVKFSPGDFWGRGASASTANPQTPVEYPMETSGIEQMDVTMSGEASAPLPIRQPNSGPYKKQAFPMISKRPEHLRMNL
row,SMILES,hp70S6K1 LANCE IC50/EC50
1,C[C@@]12C(=O)OC(=O)[C@]1(C)C1CCC2O1 [NCGC00025212-08],> 20 µM

# Biological target: T2, hKDR (Homo sapiens, UniProt P35968)
# T2 construct: purchased Cerep (LANCE kinase assay platform, contract assay)
# Assay: Cerep LANCE kinase assay hKDR (S1 assay 32)
# Assay type: biochemical
# Settings: assay number 32
# T2 sequence (P35968 20-1356): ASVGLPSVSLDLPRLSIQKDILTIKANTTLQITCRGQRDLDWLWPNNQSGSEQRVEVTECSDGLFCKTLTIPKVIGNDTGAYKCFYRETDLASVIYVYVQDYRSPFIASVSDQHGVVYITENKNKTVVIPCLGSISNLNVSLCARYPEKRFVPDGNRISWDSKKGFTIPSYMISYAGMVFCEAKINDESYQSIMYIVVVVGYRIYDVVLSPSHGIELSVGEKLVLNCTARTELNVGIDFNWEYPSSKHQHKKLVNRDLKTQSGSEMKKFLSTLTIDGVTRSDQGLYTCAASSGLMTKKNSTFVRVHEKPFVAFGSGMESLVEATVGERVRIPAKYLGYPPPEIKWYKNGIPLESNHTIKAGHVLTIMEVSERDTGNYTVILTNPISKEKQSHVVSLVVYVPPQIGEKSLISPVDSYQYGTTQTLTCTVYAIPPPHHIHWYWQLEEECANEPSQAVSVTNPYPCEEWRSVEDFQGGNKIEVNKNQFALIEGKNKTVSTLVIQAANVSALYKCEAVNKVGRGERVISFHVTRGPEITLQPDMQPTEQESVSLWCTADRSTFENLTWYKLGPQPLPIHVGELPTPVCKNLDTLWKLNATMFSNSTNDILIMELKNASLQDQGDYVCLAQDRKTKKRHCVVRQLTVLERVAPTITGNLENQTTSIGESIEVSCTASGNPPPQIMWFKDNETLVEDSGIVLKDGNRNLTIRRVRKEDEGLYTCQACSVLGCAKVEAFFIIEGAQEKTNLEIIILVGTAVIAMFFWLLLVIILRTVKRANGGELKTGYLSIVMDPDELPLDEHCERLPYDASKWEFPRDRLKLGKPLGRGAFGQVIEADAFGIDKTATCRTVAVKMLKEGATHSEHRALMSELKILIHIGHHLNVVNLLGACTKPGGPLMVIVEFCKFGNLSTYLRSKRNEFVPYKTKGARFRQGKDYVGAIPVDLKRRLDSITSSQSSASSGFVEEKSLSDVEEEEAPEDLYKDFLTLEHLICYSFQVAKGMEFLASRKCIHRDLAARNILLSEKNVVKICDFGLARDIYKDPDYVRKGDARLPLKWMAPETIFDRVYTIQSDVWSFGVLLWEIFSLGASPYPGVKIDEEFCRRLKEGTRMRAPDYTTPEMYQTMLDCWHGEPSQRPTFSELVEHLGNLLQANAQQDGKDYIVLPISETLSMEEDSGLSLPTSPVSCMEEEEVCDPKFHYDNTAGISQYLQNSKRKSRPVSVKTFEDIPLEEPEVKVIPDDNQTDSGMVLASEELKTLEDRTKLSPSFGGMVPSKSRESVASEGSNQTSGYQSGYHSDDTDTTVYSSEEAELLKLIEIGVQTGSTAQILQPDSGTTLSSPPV
row,SMILES,hKDR LANCE IC50/EC50
1,C[C@@]12C(=O)OC(=O)[C@]1(C)C1CCC2O1 [NCGC00025212-08],> 20 µM

# Biological target: T3, hJAK2 (Homo sapiens, UniProt O60674)
# T3 construct: purchased Cerep (LANCE kinase assay platform, contract assay)
# Assay: Cerep LANCE kinase assay hJAK2 (S1 assay 33)
# Assay type: biochemical
# Settings: assay number 33
# T3 sequence (O60674 whole entry): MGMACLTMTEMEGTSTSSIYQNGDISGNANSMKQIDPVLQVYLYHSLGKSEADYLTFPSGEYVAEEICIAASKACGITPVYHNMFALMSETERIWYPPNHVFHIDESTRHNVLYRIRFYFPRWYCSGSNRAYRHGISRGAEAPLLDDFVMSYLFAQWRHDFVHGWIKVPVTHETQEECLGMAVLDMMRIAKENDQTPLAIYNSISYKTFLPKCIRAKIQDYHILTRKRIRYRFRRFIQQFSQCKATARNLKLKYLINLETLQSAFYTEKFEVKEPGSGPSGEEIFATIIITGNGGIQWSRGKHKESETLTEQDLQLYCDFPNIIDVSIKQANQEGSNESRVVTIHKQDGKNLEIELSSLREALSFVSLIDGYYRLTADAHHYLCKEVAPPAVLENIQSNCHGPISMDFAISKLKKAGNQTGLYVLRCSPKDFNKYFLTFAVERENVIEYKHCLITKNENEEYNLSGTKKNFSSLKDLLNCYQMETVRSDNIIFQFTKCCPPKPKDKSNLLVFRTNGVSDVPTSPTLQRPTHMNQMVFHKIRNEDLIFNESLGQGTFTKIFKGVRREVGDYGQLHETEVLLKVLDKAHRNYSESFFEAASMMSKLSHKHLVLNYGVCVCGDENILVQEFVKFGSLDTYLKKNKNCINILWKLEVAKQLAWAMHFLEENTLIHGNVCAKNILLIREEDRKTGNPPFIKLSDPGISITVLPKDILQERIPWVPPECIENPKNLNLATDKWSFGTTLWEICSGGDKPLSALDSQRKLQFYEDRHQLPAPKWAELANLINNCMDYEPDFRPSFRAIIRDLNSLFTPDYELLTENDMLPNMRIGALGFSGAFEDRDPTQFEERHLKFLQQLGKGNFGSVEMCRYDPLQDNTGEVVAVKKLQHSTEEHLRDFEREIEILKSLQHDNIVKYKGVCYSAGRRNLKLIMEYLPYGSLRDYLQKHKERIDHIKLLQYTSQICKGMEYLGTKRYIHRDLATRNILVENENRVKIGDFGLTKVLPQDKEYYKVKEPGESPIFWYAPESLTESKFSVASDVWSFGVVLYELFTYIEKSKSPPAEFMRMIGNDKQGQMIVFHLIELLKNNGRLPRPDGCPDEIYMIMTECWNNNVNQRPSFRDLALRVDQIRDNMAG
row,SMILES,hJAK2 LANCE IC50/EC50
1,C[C@@]12C(=O)OC(=O)[C@]1(C)C1CCC2O1 [NCGC00025212-08],> 20 µM

# Biological target: T4, hGSK3b (Homo sapiens, UniProt P49841)
# T4 construct: purchased Cerep (LANCE kinase assay platform, contract assay)
# Assay: Cerep LANCE kinase assay hGSK3b (S1 assay 34)
# Assay type: biochemical
# Settings: assay number 34
# T4 sequence (P49841 whole entry): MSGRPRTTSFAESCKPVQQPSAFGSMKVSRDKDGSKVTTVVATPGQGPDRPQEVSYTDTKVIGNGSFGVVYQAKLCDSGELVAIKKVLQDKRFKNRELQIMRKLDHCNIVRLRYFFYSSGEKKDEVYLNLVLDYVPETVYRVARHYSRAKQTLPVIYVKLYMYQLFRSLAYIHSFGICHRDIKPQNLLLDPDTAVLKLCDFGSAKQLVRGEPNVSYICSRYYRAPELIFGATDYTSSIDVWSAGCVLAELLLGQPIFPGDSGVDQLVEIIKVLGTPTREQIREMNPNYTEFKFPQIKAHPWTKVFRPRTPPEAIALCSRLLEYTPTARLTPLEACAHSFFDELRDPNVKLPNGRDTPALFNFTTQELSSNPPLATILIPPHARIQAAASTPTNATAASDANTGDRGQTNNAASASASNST
row,SMILES,hGSK3b LANCE IC50/EC50
1,C[C@@]12C(=O)OC(=O)[C@]1(C)C1CCC2O1 [NCGC00025212-08],> 20 µM

# Biological target: T5, hFLT3 (Homo sapiens, UniProt P36888)
# T5 construct: purchased Cerep (LANCE kinase assay platform, contract assay)
# Assay: Cerep LANCE kinase assay hFLT3 (S1 assay 35)
# Assay type: biochemical
# Settings: assay number 35
# T5 sequence (P36888 27-993): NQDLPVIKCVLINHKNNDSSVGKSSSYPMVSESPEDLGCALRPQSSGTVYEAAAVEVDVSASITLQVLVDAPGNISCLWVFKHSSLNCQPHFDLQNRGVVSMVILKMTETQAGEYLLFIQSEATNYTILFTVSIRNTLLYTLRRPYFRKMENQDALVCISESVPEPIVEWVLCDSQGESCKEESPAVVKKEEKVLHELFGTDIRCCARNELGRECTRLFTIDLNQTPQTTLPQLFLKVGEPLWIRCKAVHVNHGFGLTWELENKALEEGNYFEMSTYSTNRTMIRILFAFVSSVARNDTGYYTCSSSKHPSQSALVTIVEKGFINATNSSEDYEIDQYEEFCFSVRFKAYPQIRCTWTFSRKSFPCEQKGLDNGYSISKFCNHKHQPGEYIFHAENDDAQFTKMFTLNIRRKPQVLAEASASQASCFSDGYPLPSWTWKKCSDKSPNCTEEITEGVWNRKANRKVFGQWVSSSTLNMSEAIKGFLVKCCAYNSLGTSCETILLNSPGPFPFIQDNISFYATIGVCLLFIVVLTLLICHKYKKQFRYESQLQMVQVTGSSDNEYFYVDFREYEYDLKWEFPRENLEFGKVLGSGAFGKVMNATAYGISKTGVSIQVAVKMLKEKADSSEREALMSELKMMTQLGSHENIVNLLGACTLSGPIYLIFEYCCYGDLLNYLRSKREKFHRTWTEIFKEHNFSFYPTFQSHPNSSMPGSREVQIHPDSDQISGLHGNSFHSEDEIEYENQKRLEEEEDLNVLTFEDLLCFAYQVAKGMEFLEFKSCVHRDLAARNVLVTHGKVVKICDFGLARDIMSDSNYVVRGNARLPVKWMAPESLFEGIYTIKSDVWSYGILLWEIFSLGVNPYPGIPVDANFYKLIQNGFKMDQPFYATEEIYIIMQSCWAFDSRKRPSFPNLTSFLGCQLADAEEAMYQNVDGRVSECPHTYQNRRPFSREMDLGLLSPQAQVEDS
row,SMILES,hFLT3 LANCE IC50/EC50
1,C[C@@]12C(=O)OC(=O)[C@]1(C)C1CCC2O1 [NCGC00025212-08],> 20 µM

# System: ECFC/ADSC co-culture cell nuclei number
# Assay: not given
# Settings: not given
row,SMILES,VEGF_ADSC\ECFC Angio Hoechst NucArea IC50/EC50
1,C[C@@]12C(=O)OC(=O)[C@]1(C)C1CCC2O1 [NCGC00025212-08],8.333 µM
2,c1ccc2c(c1)Sc1ccccc1N2CC1CN2CCC1CC2 (stereo not drawn) [NCGC00183046-03],> 10 µM
